Source: patent US9670133B2, “Mixtures of cannabinoid compounds, and production and use thereof” (priority 2013, dated 2017)

How the values were obtained:
CB2 receptors [1] = target: T1, CB2 receptors (Homo sapiens, UniProt P34972); assay: Signal transduction in CHO-CB2-CREluc cells (luciferase; forskolin, AM630); conditions: for Effect on CB2 receptor (in words): text statement
CB1 receptors [2] = target: T2, CB1 receptors (Homo sapiens, UniProt P21554); assay: Signal transduction in CHO-CB1-CREluc cells (luciferase; agonism, and antagonism against WIN); conditions: for Effect on CB1 receptor (in words): text statement
T2 sequence (P21554 whole entry): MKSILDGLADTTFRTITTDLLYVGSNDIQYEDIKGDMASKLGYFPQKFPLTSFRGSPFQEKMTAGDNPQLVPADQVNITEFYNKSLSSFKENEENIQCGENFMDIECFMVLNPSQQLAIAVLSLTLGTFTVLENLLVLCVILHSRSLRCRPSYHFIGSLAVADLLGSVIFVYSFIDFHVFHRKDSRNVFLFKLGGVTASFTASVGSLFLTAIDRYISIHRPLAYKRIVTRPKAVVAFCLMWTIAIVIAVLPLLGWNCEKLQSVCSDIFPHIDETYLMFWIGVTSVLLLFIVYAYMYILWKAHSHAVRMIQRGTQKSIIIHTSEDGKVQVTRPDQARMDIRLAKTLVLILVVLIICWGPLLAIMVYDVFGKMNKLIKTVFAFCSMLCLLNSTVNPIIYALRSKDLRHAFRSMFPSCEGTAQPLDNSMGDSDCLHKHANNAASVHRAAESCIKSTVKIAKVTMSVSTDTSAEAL

NFAT = assay: Jurkat T cell model, NFAT dependent luciferase activation by PMA plus ionomycin; format: cell-based; conditions: luciferase construct
Experimental: (§1) Substances according to the invention were investigated in an accepted Jurkat T cell model. The underlying mechanism is based on the fact that the transcriptional activity of lymphokines, such as e.g. the one of IL-2, is based on the coordinated activation of different transcription factors, such as e.g. NFAT and NF-κB. The effect of the substances according to the invention on said factors was evaluated in-vitro with the aid of a luciferase-coupled construct (KBF-luc). Thereby, an activation of transiently transfected cells (Jurkat T cells) through PMA (plus ionomycin in case of NFAT activation), driven by a NF-κB or NFAT dependent promoter, leads to a strong induction of luciferase gene expression. The inhibition of the luciferase activity was measured as a function of the dose rate of the substance according to the invention. A knowledgeable person skilled in the art can easily follow such procedure from the literature (e.g. in Yuan et al. (2002), Sancho et al. (2003), Do et al. (2004) and Cencioni et al. (2010)).

CB1 receptors [3] = target: T2, CB1 receptors; assay: biochemical; format: binding; parameters: purchased RBHCB1M400UA; host or cells: human cells (transfected); conditions: for Ki: dissociation constant, mean +/- SEM, competition with [3H]-CP55940; for CB1 (% binding): screening with a single high dose, displacement of [3H]-CP55940
CB2 receptors [4] = target: T1, CB2 receptors; assay: Competition binding study with [3H]-CP55940 in CB2 receptor transfected cell membranes; parameters: purchased RBXCB2M400UA; host or cells: human cells (transfected); conditions: for Ki: dissociation constant, mean +/- SEM, competition with [3H]-CP55940; for Ki (CB1): Ki (CB2) Selectivity for CB2 in comparison to CB1 (rounded): ratio of Ki values; for CB2 (% binding): screening with a single high dose, displacement of [3H]-CP55940
NF-κB = assay: Jurkat T cell model, NF-κB dependent luciferase activation by PMA; format: cell-based; conditions: luciferase construct
Experimental: as §1

[5] = listed as 2-Hydroxyethyl cannabidiolate
[6] = listed as Glyceryl cannabidiolate
[7] = listed as N-Methyl-sulfonyl cannabidiolate

T1 sequence (P34972 whole entry): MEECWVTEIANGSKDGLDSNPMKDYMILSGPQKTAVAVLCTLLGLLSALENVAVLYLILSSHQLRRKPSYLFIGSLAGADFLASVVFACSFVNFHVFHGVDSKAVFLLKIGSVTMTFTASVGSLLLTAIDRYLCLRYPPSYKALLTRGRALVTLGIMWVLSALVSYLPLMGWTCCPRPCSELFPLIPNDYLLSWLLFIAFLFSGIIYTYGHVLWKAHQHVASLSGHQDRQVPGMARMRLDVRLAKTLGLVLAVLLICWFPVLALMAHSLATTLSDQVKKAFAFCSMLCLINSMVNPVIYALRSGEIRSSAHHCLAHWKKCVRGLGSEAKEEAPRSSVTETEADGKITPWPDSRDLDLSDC

| Structure (SMILES) | Effect on CB2 receptor (in words) (CB2 receptors [1]) | Effect on CB1 receptor (in words) (CB1 receptors [2]) | Inhibition of NFAT dependent activation of T cells (NFAT) | Agonism and antagonism at CB2 (CB2 receptors [1]) | Agonism and antagonism at CB1 (CB1 receptors [2]) | Effect on CB2 receptor (in words) (CB2 receptors [1]; [5]) | Effect on CB1 receptor (in words) (CB1 receptors [2]; [5]) | Ki (CB1 receptors [3]) [nM] | CB1 (% binding) (CB1 receptors [3]) [%] | Ki (CB2 receptors [4]) [nM] | Ki (CB1): Ki (CB2) Selectivity for CB2 in comparison to CB1 (rounded) (CB2 receptors [4]) | CB2 (% binding) (CB2 receptors [4]) [%] | Effect on CB2 receptor (in words) (CB2 receptors [1]; [6]) | Effect on CB1 receptor (in words) (CB1 receptors [2]; [6]) | Effect on CB1 receptor (in words) (CB1 receptors [2]; listed as cyclohexyl cannabidiolate) | Effect on CB2 receptor (in words) (CB2 receptors [1]; [7]) | Inhibition of NF-κB dependent activation of T cells (NF-κB) | Effect on CB1 receptor (in words) (CB1 receptors [2]; [7]) | Binding to CB1 receptors (in words) (CB1 receptors [3]) | Binding to CB2 receptors (in words) (CB2 receptors [4]) |
| --- | --- | --- | --- | --- | --- | --- | --- | --- | --- | --- | --- | --- | --- | --- | --- | --- | --- | --- | --- | --- |
| C=C(C)C1CCC(C)=CC1c1c(O)cc(CCCCC)c(C(=O)OCC(O)CCC)c1O (centres unmarked) [2-hydroxypentyl cannabidiolate] | strong activation | inhibit | inhibition |  |  |  |  |  |  |  |  |  |  |  |  |  |  |  |  |  |
| C=C(C)C1CCC(C)=CC1c1c(O)cc(CCCCC)c(C(=O)OCCCCCC)c1O (centres unmarked) [Hexyl cannabidiolate] | antagonism | antagonism |  | + | + |  |  |  |  |  |  |  |  |  |  |  |  |  |  |  |
| C=C(C)[C@@H]1CCC(C)=C[C@H]1c1c(O)cc(CCCCC)c(C(=O)OCCO)c1O [Compound III, 2-hydroxyethyl cannabidiolate] | CB2 agonists | CB1 antagonists | inhibition | + | − | strong activation | inhibit | 3920 | 77.3 ± 6.5 | 375 ± 47.7 | 10.4 | 90.3 ± 2.4 |  |  |  |  |  |  |  |  |
| C=C(C)[C@@H]1CCC(C)=CC1c1c(O)cc(CCCCC)c(C(=O)OCCCCCC)c1O (some centres unmarked) [XI, Hexyl cannabidiolate] | CB2 agonists | CB1 agonists |  |  |  |  |  | 538 ± 53.9 | 92.2 ± 1.7 | 510 ± 29 | 1 | 97.2 ± 3.4 |  |  |  |  |  |  |  |  |
| C=C(C)[C@@H]1CCC(C)=C[C@H]1c1c(O)cc(CCCCC)c(C(=O)OCC(O)CO)c1O (some centres unmarked) [Compound IV, Glyceryl cannabidiolate] | CB2 agonists | CB1 agonists | inhibition | + | + |  |  | 2170 | 90.2 ± 3.8 | 277 ± 78.7 | 7.8 | 101.6 ± 0.5 | strong activation | weak activation |  |  |  |  |  |  |
| C=C(C)[C@@H]1CCC(C)=CC1c1c(O)cc(CCCCC)c(C(=O)OC2CCCCC2)c1O (some centres unmarked) [XII, Cyclohexyl cannabidiolate] |  | CB1 antagonists |  | 0 | − |  |  | 538 ± 53.9 | 81.5 ± 6.8 | 67 ± 4 | 37 | 99.2 ± 2.3 |  |  | antagonistic effect |  |  |  |  |  |
| C=C(C)[C@@H]1CCC(C)=CC1c1c(O)cc(CCCCC)c(C(=O)OCCNS(C)(=O)=O)c1O (some centres unmarked) [XIII, N-Methyl-sulfonyl cannabidiolate] | CB2 agonists | CB1 antagonists | strong inhibition | + | − |  |  | 538 ± 53.9 | 98.9 ± 7.8 | 0.012 ± 0.001 | 22.5 | 104.9 ± 4.8 |  |  |  | agonistic effect | strong inhibition | antagonistic effect | high binding affinity | high binding affinity |
| C=C(C)[C@@H]1CCC(C)=C[C@H]1c1c(O)cc(CCCCC)c(C(=O)OCC(O)CCC)c1O (some centres unmarked) [Compound V, 2-hydroxypentyl cannabidiolate] | CB2 agonists | CB1 antagonists |  | + | − |  |  | 538 ± 53.9 | 82.0 ± 8.0 |  |  |  |  |  |  |  |  |  |  |  |
